Patent US20040203034A1 (The University of Chicago, priority 2003, published 2004)
Like-named read-outs stand apart in the source and are kept apart here.

Columns and labels:
[1] = system: UGT1A isoforms; experiment: In vitro TAS-103 and SN-38 glucuronidation activity in species deficient in UGT1A isoforms; type: in vitro ADME; conditions: Gunn rats and CN-1 patients deficient in UGT1A isoforms
Text: On the other hand, while isoforms of the UGT1 family are the predominate isoforms involved in TAS-103 glucuronidation, the isoform of the UGT2 family may also participate in TAS-103 glucuronidation. Failure to glucuronidate SN-38 and TAS-103 in these instances may result specifically from the genetic defect in UGT1 gene family.

[2] = biological target: T1, UGT1A1 (Homo sapiens, UniProt P22309); experiment: SN-38 glucuronidation assay in human liver microsomes; type: in vitro ADME; conditions: for SN-38 glucuronidation rate: Caucasians
T1 construct: microsomes were isolated following differential centrifugation methods; tissue Liver Tissue Procurement and Distribution System; Liver Core Bank Facility (St. Jude Children's Research Hospital); host or cells: normal human liver microsomes (n=83 donors)
T1 sequence (P22309 26-533): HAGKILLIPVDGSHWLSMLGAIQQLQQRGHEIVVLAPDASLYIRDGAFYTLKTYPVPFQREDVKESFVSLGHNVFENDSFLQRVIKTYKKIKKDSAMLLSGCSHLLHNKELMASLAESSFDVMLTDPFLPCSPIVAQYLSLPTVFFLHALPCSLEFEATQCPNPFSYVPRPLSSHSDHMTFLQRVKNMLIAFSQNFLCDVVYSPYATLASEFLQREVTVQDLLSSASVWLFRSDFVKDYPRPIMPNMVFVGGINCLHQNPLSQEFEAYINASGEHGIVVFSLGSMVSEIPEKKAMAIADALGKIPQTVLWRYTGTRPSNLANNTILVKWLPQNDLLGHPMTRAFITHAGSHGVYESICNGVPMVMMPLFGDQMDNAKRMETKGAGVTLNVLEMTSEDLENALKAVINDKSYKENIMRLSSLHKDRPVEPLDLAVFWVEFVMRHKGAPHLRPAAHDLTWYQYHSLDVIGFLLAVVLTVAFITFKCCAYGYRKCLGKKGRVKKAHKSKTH
Text: Normal human livers (n=83) were mainly obtained from Liver Tissue Procurement and Distribution System (National Institutes of Diabetes and Digestive and Kidney Diseases, Minneapolis, Minn.). DNA was isolated by using Qiagen RNA/DNA Maxi Kit (Qiagen Inc., Valencia, Calif., USA), and microsomes were isolated following differential centrifugation methods (Purba et al., 1987). DNA and microsomes were provided by the Liver Core Bank Facility (St. Jude Children's Research Hospital) of the Pharmacogenetics of Anticancer Agents Research (PAAR) Group. In order to identify livers in which enzyme degradation occurred, liver samples consistently comprised in the 10th percentile of UGT1A1, UGT1A9 and UGT2B7 activities were sought. UGT1A9 and UGT2B7 activities were measured using specific probes (data not shown) (Ramirez et al., 2002 and Innocenti, et al., 2001). Out of eight samples within the 10th percentile of UGT1A1, only one sample was comprised within the 10th percentile of activities of the other two enzyme activities.
Samples were phenotyped by using SN-38 as a substrate for UGT1A1. The incubation mixture consisted of 5 μmol SN-38, 10 mmol MgCl2, 1 mg/ml microsomes, 0.025 mol Tris-HCl (pH 7.4) and 5 mmol UDP-GA. Samples were incubated for 30 min at 37° C. The reaction was stopped by the addition of methanol. These conditions were selected after previous optimization of the enzyme reaction (Iyer et al., 1998). Camptothecin (75 ng) was used as an internal standard. SN-38 glucuronidation was measured by HPLC (Hitachi Instruments Inc., San Jose, Calif., USA) with fluorescence detection (λ excitation=355 nm, λ emission=515 nm). A μBondapak™ C18 column (3.9×300 mm, 10 μm; Waters Corp., Milford, Mass., USA) and μBondapak™ C18 guardpak (Waters Corp.) were used. A mobile phase of […] acetonitrile/tetra-hydrofuran/0.9 mmol sodium heptanedfonic acid in 50 mmol potassium dihydrogen phosphate (pH 4) was used during the first 7 min of the run. From 7.1-25 min, the eluent consisted of 30/70 acetonitrile/5 mmol sodium heptanesulfonic acid in 50 mmol potassium dihydrogen phosphate (pH 4). The flow rate was 0.9 ml/min. […] The intra-assay variability was determined by performing 10 incubations on the same day using a pool of human liver microsomes. The inter-assay variability was evaluated by incubating a pool of human liver microsomes in triplicate on three different days. […]
UGT1A1 activity was phenotyped by measuring SN-38 glucuronidation rates of each liver as the mean±SD of a single experiment performed in triplicate. […] Moreover, trend analysis and pairwise comparisons were performed in genotypes expressed as the sum of TA repeats in both chromosomes (i.e. in samples with […] (5/6, 6/6, 5/7), 13 (6/7) and […] (7/7, 6/8, 7/8) TA repeat genotypes). […]

[3] = Pharmacokinetic analysis of irinotecan and metabolites in patient plasma; type: in vivo, human; conditions: for SN-38 AUC, mean / SN-38^b AUC, mean: after irinotecan; for AUC: human, plasma, 350 mg/m2, Irinotecan AUC, mean
Description: Venous blood for pharmacokinetic analysis was collected on day 1 of cycle 1 for pharmacokinetic analysis. Samples of 7 ml were collected into green top sodium heparinized Vacutainer® tubes prior to the infusion; 30, 60, and 90 minutes during the infusion; and 10, 20, 30, 45, and 60 minutes and 1.5, 2, 4, 6, 12, and 24 hours after the infusion. Samples were centrifuged (2500 rpm, 20 min, 4° C.) and the plasma was immediately separated, transferred as two aliquots into storage tubes, frozen at −80° C. until analysis.
The glucuronidation ratio was expressed as the ratio of the SN-38G AUC over SN-38 AUC.

[4] = system: patients with solid tumors or lymphoma
[5] = system: patients; conditions: cited from earlier work
[6] = system: solid tumors or lymphoma; experiment: Objective tumor response in patients given irinotecan; type: in vivo, human
[7] = TA indel genotype 6/6, 30 patients
[8] = TA indel genotype 6/7, 25 patients
[9] = TA indel genotype 7/7, 6 patients

## CCc1c2c(nc3ccc(O)cc13)-c1cc3c(c(=O)n1C2)COC(=O)[C@]3(O)CC [SN-38, 7-ethyl-10-hydroxycamptothecin]
[1]
  in vitro glucuronidation compared to healthy liver donors: no in vitro glucuronidation
[2]; 83 human liver microsomes
  coefficient of variation of SN-38 glucuronidation: 46%
  range in SN-38 glucuronidation: 10 fold
[2]; I/I haplotype pairs
  SN-38 glucuronidation rate: 2.53±0.82 SN-38G/IS
[2]; I/II haplotype pairs
  SN-38 glucuronidation rate: 2.06±0.74 SN-38G/IS
[3]; [7]
  Glucuronidation Ratio (SN-38G AUC/SN-38 AUC), mean: 6.52
  SN-38 AUC, mean: 335.9 ng·h/mL
  SN-38^b AUC, mean: 1954.2 ng·h/mL
[3]; [8]
  Glucuronidation Ratio (SN-38G AUC/SN-38 AUC), mean: 5.55
  SN-38 AUC, mean: 458.4 ng·h/mL
  SN-38^b AUC, mean: 1887.9 ng·h/mL
[3]; [9]
  Glucuronidation Ratio (SN-38G AUC/SN-38 AUC), mean: 3.59
  SN-38 AUC, mean: 542.0 ng·h/mL
  SN-38^b AUC, mean: 1819.1 ng·h/mL

## CN(C)CCNc1nc2cc(O)ccc2c2c1C(=O)c1ccccc1-2.Cl.Cl [TAS-103, 6-[[2-(dimethylamino)ethyl]amino]-3-hydroxy-7H-indeno[2,1-c]quinoline-7-one dihydrochloride]
[1]
  lower glucuronidation rate in vitro compared to healthy liver donors: ~80%

## CCc1c2c(nc3ccc(OC(=O)N4CCC(N5CCCCC5)CC4)cc13)-c1cc3c(c(=O)n1C2)COC(=O)[C@]3(O)CC [irinotecan, 7-ethyl-10-[4-(1-piperidino)-1-piperidino]carbonyloxycamptothecin]
[4]; TA indel genotype 6/6 (0/30), cycle 1
  frequency of grade 4 neutropenia: 0%
[4]; TA indel genotype 6/7 (3/24), cycle 1
  frequency of grade 4 neutropenia: 12.5%
[4]; TA indel genotype 7/7 (3/6), cycle 1
  frequency of grade 4 neutropenia: 50%
[4]; all assessable patients, cycle 1, 350 mg/m2 i.v. every 3 weeks
  frequency of grade 4 neutropenia: 9.5%
[4]; all patients, cycle 1
  frequency of grade 3 diarrhea: 5%
  grade 4 diarrhea: no instances
[4]; neutropenia-related sepsis, 7/7 genotype, died on day 11
  toxic death: One toxic death
[4]; out of the 7 patients with total bilirubin higher than 0.7 mg/dl
  patients with grade 4 neutropenia: 4
[4]; patients with pretreatment total bilirubin less than 0.6 mg/dl
  cases of grade 4 neutropenia: No cases
[5]; both weekly and three-weekly regimens
  patients experiencing grade 3-4 neutropenia: 30-40%
[5]; early single agent trials (Negoro 1991; Rothenberg 1993)
  grade 3-4 diarrhea, share of patients: about one third
[5]; three-weekly regimen (Fuchs et al., 2003)
  frequency of grade 3-4 diarrhea: 19%
[5]; three-weekly single agent regimen (Fuchs et al., 2003)
  mortality rate: 1.6%
[5]; weekly schedule (Fuchs et al., 2003)
  frequency of grade 3-4 diarrhea: 36%
[5]; weekly single agent regimen (Fuchs et al., 2003)
  mortality rate: 5.3%
[6]; 60 patients assessable for response
  objective responses: three objective responses
[6]; colorectal and head and neck cancer, 6/7 genotype
  partial response, patients: Two patients
[6]; colorectal cancer, 6/6 genotype
  complete response, patients: One colorectal cancer patient
[3]; intravenous, TA indel genotype 6/7, 25 patients
  AUC: 26100 ng·h/mL
[3]; intravenous, TA indel genotype 7/7, 6 patients
  AUC: 25400 ng·h/mL
[3]; iv, TA indel genotype 6/6, 30 patients, 350 mg/m2 90 minute i.v. infusion
  AUC: 24400 ng·h/mL
